From PMC9403717, “Ruthenium complexes show potent inhibition of AKR1C1, AKR1C2, and AKR1C3 enzymes and anti-proliferative action against chemoresistant ovarian cancer cell line” (Frontiers in Pharmacology, 2022) come the findings set out here.

This assay deals with T1, AKR1C1 (Homo sapiens, UniProt Q04828).
T1 construct: made in house
T1 sequence (Q04828 1-323): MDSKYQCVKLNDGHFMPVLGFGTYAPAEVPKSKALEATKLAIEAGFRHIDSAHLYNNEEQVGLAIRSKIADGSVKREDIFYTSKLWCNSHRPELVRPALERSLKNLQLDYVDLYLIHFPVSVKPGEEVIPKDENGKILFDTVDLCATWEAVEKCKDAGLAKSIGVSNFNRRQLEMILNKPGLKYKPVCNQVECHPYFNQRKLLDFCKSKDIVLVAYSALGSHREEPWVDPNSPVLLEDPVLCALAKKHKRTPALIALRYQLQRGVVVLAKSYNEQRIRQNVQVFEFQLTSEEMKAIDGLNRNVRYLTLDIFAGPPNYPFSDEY
Briefly: Inhibition of recombinant AKR1C1, oxidation of 1-acenaphthenol, progress-curve analysis. The assay is classed as biochemical. To be noted: for k+3: irreversible binding of second inhibitor molecule to E-NADH-I; for k+2: irreversible binding of second inhibitor molecule to E-NAD-I. The protocol:
To investigate the effect of ten selected ruthenium compounds, we measured their effect on the time course of oxidation of the artificial substrate 1-acenaphtenol by recombinant enzymes AKR1C1–3. The recombinant enzymes AKR1C1–AKR1C3 were prepared as described previously ([Brozic et al., 2006]). Since the artificial substrate is racemic, the oxidation follows a double exponential pattern as described previously ([Traven et al., 2015]). The in vitro catalytic activity of AKR1C1–3 enzymes was determined spectrophotometrically by monitoring the increase in NADH absorbance at 340 nm (ε(λ340) = 6220 M^−1cm^−1) in the presence of the substrate 1-acenaphthenol. Enzymatic reactions (300 µL) were performed in 100 mm potassium phosphate buffer (pH 9.0), 0.005% (v/v) TritonX-114, 5% (v/v) DMSO, containing 2.3 mm NAD^+ and 1-acenaphthenol at final concentrations of 90, 180, and 250 µM for AKR1C1, AKR1C2, and AKR1C3, respectively. A total of 5 µL of a tested compound in DMSO was added to the reaction mixture. The final concentrations of the tested compounds ranged from 1 to 200 μM, depending on the extent of inhibition (Supplementary Data). The reaction was started by adding 15 µL of AKR1C1, AKR1C2, or AKR1C3 dissolved in 1x PBS (pH 7.3) at final concentrations of 0.11, 0.16, and 1.5 µM, respectively. AKR1C1–3 activity was measured at 37°C for 3 h without shaking using a PowerWave XS microplate reader (Biotek; Winooski, VT, United States). Measurements at seven different concentrations were performed in duplicates or triplicates (Supplementary Figures S2). To mechanistically explain all the obtained progress curves for each ruthenium complex on each enzyme by a common reaction scheme, we extended the originally proposed scheme so that the interaction of the ruthenium complex with apo- and holoenzyme was allowed to be rapid and followed by a slow irreversible association of a second ruthenium complex molecule. However, the affinity of the Ru complexes for the apoenzymes was much lower so this part was excluded from the proposed kinetic model for clarity (Figure 4).
FIGURE 4 Reaction scheme for the oxidation of 1-acenaphtenol by AKR1C1-3 and its inhibition by ruthenium compounds. E represents apoenzyme, E-NAD and E-NADH represent holoenzyme with bound NAD^+ and NADH, respectively. A and B are enantiomers of substrate 1-acenaphtenol. Symbols which include I (ruthenium compound) represent holoenzyme in complex with one or two inhibitor molecules. KNAD, KNADH, and K2-3 are equilibrium constants and k+2–3 are second-order association rate constants for the binding of the second inhibitor molecule to the enzyme. The progress curves for each enzyme in the presence of ruthenium complexes were analyzed by the WEB server ENZO (https://enzo.cmm.ki.si/) designed exactly for such purposes ([Bevc et al., 2011]).

The mark [1] stands for this setting: reversible binding to holoenzyme E-NADH, read-out: K3.
The mark [2] stands for this setting: reversible binding to holoenzyme E-NAD, read-out: K2.

Where two headings read alike, the source gives them in different places.

As for `Cc1ccc(C(C)C)cc1.O=C(C=C([O][Ru][Cl])c1ccc(I)cc1)C(F)(F)F` [Compound 1], the “k+3” value worked out at 9.4 M⁻¹ s⁻¹. Under setting [1], the Ki was found to be 21.4 nM.

For `C1N2CN3CN1CP(C2)C3.Cc1ccc(C(C)C)cc1.F[P-](F)(F)(F)(F)F.O=C(C=C([O][Ru+])c1ccc(I)cc1)C(F)(F)F` [Compound 2], the “k+2” value worked out at 25.9 M⁻¹ s⁻¹. In addition, the Ki under setting [2] is 2800 nM.

In the case of `CN(C)c1ccc(C(=CC(=O)C(F)(F)F)[O][Ru][Cl])cc1.Cc1ccc(C(C)C)cc1` [Compound 3, (η^6-p-cymene)chlorido(4,4,4-trifluoro-1-(4-(dimethylamino)phenyl)-1,3-butandionato)ruthenium(II)], the “k+2” value is 31.5 M⁻¹ s⁻¹ and the “k+3” value came to 4.3 M⁻¹ s⁻¹. Besides, the Ki under setting [2] was determined as 107000 nM. Moreover, the Ki under setting [1] is 42.9 nM.

On to `Cc1ccc(C(C)C)cc1.O=C(C=C([O][Ru][Cl])c1ccc2c(c1)OCO2)C(F)(F)F` [Compound 5], for which the “k+3” value turned out to be 6.0 M⁻¹ s⁻¹. Besides, the Ki under setting [1] stood at 23.5 nM.

As for `C1N2CN3CN1CP(C2)C3.Cc1ccc(C(C)C)cc1.F[P-](F)(F)(F)(F)F.O=C(C=C([O][Ru+])c1ccc2c(c1)OCO2)C(F)(F)F` [Compound 6], the “k+2” value came out at 48.8 M⁻¹ s⁻¹. Also, the Ki under setting [2] stood at 3100 nM.

As to `Cc1ccc(C(C)C)cc1.[Cl-].[O-]c1c(I)cc(Cl)c2cccnc12.[Ru+2]` [Compound 7], the “k+3” value amounted to 17.1 M⁻¹ s⁻¹. For the same compound, the Ki under setting [1] came to 345 nM.

In the case of `C1N2CN3CN1CP(C2)C3.Cc1ccc(C(C)C)cc1.F[P-](F)(F)(F)(F)F.[O-]c1c(I)cc(Cl)c2cccnc12.[Ru+2]` [Compound 8], under setting [2], the Ki was determined as 350 nM.

Regarding `Cc1ccc(C(C)C)cc1.O=[N+]([O-])c1ccc([O][Ru][Cl])c2ncccc12` [Compound 9, (η ^6-p-Cymene) (nitroxolinato)chloridoruthenium (II)], the “inhibitory effect (in words)” value is reported as “very weak inhibitory effect” and the “irreversible inhibition (in words)” value was “virtually no irreversible inhibition”. Moreover, under setting [2], the Ki turned out to be 227000 nM.

Regarding `C1N2CN3CN1CP(C2)C3.Cc1ccc(C(C)C)cc1.F[P-](F)(F)(F)(F)F.O=[N+]([O-])c1ccc([O][Ru+])c2ncccc12` [Compound 10, (η ^6-p-cymene)(nitroxolinato)(pta)ruthenium(II) hexafluorophosphate], the “k+2” value was determined as 13.5 M⁻¹ s⁻¹. Besides, the Ki under setting [2] is 49700 nM.
